Where two headings read alike, the source gives them in different places.
Key:
[1] = test system: ED43-virus; format: cell-based, hepatitis C virus genotype 4a
[2] = test system: original ED43 virus (HCV genotype 4a full-length culture virus); assay: concentration-response (EC50) assay, original virus; conditions: Hepatitis C virus, Huh7.5, 48 h, read-out: EC50 (nM [95% CI])
Procedure: Huh7.5 cells were seeded on 96-well plates overnight, then infected with the indicated viruses for 24 hours. The cells were subsequently treated with specific inhibitors for an additional 48 hours before analysis as described (Pham et al. 2018; Gottwein et al. 2011). Values are means of triplicates±SEM. The original D43 virus was used in these two experiments as a control. TN (1a) virus was included for comparison.
Huhu7.5 cells were seeded on 96-well plates overnight, then infected with the indicated viruses for 24 hours. The cells were subsequently treated with specific inhibitors for an additional 48 hours before analysis as described (Pham et al. 2018; Gottwein et al. 2011). Values are means of triplicates±SEM. The original ED43 virus was used as a control. TN (1a) virus was included for comparison.
For concentration-response assays using described methods (Pham et al. 2018; Ramirez et al. 2016; Ramirez et al. 2014), stocks of non-treated and of single-treatment escape viruses were prepared. […] The half-maximal effective concentration (EC50) value was calculated using GraphPad Prism 6.

[3] = test system: SOFesc virus (ED43 sofosbuvir escape virus); assay: microbe, parasite or virus in culture; format: cell-based; conditions: Hepatitis C virus, Huh7.5 cells, 48 hours treatment, read-out: EC50 (nM [95% CI])

## COC(=O)N[C@H](C(=O)N1CCC[C@H]1c1nc(-c2ccc3c(c2)O[C@@H](c2ccccc2)n2c-3cc3cc(-c4c[nH]c([C@@H]5CCCN5C(=O)[C@@H](NC(=O)OC)C(C)C)n4)ccc32)c[nH]1)C(C)C [elbasvir]
[1]; 100×EC50
  emergence of main RASs responsible for ED43 escape: 5 days

## COC(=O)N[C@H](C(=O)N1CC2(CC2)C[C@H]1c1nc(-c2ccc3c(c2)C(F)(F)c2cc(-c4ccc5[nH]c([C@@H]6[C@H]7CC[C@H](C7)N6C(=O)[C@@H](NC(=O)OC)C(C)C)nc5c4)ccc2-3)c[nH]1)C(C)C [ledipasvir]
[1]; 100×EC50
  emergence of main RASs responsible for ED43 escape: 5 days

## COC(=O)N[C@H](C(=O)N1CCC[C@H]1C(=O)Nc1ccc([C@@H]2CC[C@@H](c3ccc(NC(=O)[C@@H]4CCCN4C(=O)[C@@H](NC(=O)OC)C(C)C)cc3)N2c2ccc(C(C)(C)C)cc2)cc1)C(C)C [ombitasvir]
[1]; 100×EC50
  emergence of main RASs responsible for ED43 escape: 5 days

## Cc1cnc(C(=O)N[C@H]2CCCCC/C=C\[C@@H]3C[C@@]3(C(=O)NS(=O)(=O)C3CC3)NC(=O)[C@@H]3C[C@@H](Oc4nc5ccccc5c5ccccc45)CN3C2=O)cn1 [paritaprevir]
[1]; 8×EC50
  emergence of RAS NS3P-D168E after treatment initiation: 7 days
  viral escape / viral spread under treatment: 16 days

## COC(=O)N[C@H](C(=O)N1CCC[C@H]1c1nc2cc([C@H]3CC[C@H](c4cc5nc([C@@H]6CCCN6C(=O)[C@@H](NC(=O)OC)[C@@H](C)OC)[nH]c5cc4F)N3c3cc(F)c(N4CCC(c5ccc(F)cc5)CC4)c(F)c3)c(F)cc2[nH]1)[C@@H](C)OC [pibrentasvir]
[1]; 5×EC50
  viral escape: ≤ 33 days
[1]; 10×EC50
  treatment outcome: viral eradication

## CC(C)OC(=O)[C@H](C)N[P@](=O)(OC[C@H]1O[C@@H](n2ccc(=O)[nH]c2=O)[C@](C)(F)[C@@H]1O)Oc1ccccc1 [sofosbuvir]
[2]
  EC50: 668 nM
[3]
  EC50: 2250 nM
[1]; 2×EC50 (initiated at 1×EC50, increased at day 9)
  viral escape: 77 days

## COC[C@H]1C[C@@H](c2nc(-c3ccc4c(c3)COc3cc5c(ccc6nc([C@@H]7CC[C@H](C)N7C(=O)[C@@H](NC(=O)OC)C(C)C)[nH]c65)cc3-4)c[nH]2)N(C(=O)[C@H](NC(=O)OC)c2ccccc2)C1 [velpatasvir]
[1]; 100×EC50
  viral escape: did not observe viral escape
